Source: patent US20230137943A1, “PHOTOPROXIMITY PROFILING OF PROTEIN-PROTEIN INTERACTIONS IN CELLS” (The University of Chicago, priority 2019, published 2023)

Biological target: T1, FLAG-tagged SNAP-Tag protein (SNAP-FLAG) (Homo sapiens, UniProt P16455, A127T/A154D/C150Q/C62A/E30R/G131K/G132T/G153L/K125A/K32I/L33F/M134L/N157G/Q115S/Q116H/R128A/R135S/S151G/S152D/S159E)
T1 construct: expressed in transfected cells
T1 sequence (P16455 1-182 E30R/K32I/L33F/C62A/Q115S/Q116H/K125A/A127T/R128A/G131K/G132T/M134L/R135S/C150Q/S151G/S152D/G153L/A154D/N157G/S159E limits assumed): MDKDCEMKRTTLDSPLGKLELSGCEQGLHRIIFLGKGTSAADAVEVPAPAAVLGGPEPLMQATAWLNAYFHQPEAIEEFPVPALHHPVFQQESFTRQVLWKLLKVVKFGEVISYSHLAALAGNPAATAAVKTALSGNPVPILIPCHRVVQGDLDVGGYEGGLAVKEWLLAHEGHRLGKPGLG
Assay: PP1 dose response: covalent labeling of SNAP-FLAG in live cells (Western blot)
Type: cell-based
Settings: HEK293T cells stably expressing SNAP-FLAG, increasing doses for two hours, not irradiated
Protocol: PP1 close response and viability assay: Dose response—Each well of a 6-well plate was seeded with 300,000 HEK293T cells stably expressing either SNAP-FLAG or KEAP-SNAP. After reaching ˜90% confluency the growth media was removed, cells washed with DPBS, and treated with varying concentrations (0, 0.5, 1, 5, 15, 45 μM) of photoproximity probe PP1 in 500 μL serum-free DMEM for 2 hours at 37° C. Post treatment, media was aspirated and non-reacted probe washed out with 3 mL full DMEM over 40 minutes, changing the media twice. Cells were harvested, washed, and lysed in DPBS containing protease inhibitor using a tip sonicator. Lysate was normalized to 1 mg/mL then diluted with loading buffer and run on SDS-PAGE gel that was transferred by western blot to nitrocellulose. The nitrocellulose membrane was stained for biotin and Flag-Tag using streptavidin IR dye (Li-cor #926-32230; Li-cor Biosciences, Lincoln, Nebr., United States of America) and anti-Flag (Sigma #F3165, Sigma-Aldrich, St. Louis, Mo., United States of America; Li-cor #926-68072, Li-cor Biosciences, Lincoln, Nebr., United States of America). Fluorescence images were collected using an Odyssey infrared imager (Li-cor Biosciences, Lincoln, Nebr., United States of America). […]

Work on `COc1cc(C(C)OC(=O)NC(CCCCNC(=O)CCC2(C)N=N2)C(=O)NCCCCCNC(=O)CCCCC2SCC3NC(=O)NC32)c([N+](=O)[O-])cc1OCCCC(=O)NCc1ccc(COc2nc(N)nc3[nH]cnc23)cc1` (stereo not shown) [PP1] yielded an EC50 of 4.5 µM.
